From patent publication US20250059179A1, “Heterocyclic Compounds and Methods of Use” (AMGEN INC., priority 2021, published 2025)

Target: GDP-bound KRAS protein (aa 1-169), containing both G12D and C118A amino acid substitutions (Homo sapiens, UniProt P01116, C118A/G12D)
Assay: KRAS G12D Coupled Nucleotide Exchange Assay;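 also: IC50 obtained by fitting the AlphaScreen signal with a four-parameter logistic curve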
Format: biochemical
Conditions: 2 h compound pre-incubation; SOS-mediated nucleotide exchange, cRAF AlphaScreen readout

Sequence of GDP-bound KRAS protein (aa 1-169), containing both G12D and C118A amino acid substitutions (P01116 1-169 isoform P01116-2 G12D/C118A): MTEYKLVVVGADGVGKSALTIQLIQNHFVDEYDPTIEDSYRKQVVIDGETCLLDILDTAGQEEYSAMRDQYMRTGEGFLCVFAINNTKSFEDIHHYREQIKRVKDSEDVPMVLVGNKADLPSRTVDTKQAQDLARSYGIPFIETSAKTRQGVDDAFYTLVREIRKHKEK

Structure (SMILES) | Avg 2 h Coupled Exchange IC50
CCC1(N)CN(c2nc(N3CCNCC3)c3cc(Cl)c(-c4cccc5sc(N)nc45)c(F)c3n2)C1 [Example 81, 4-[2-(3-amino-3-ethyl-azetidin-1-yl)-6-chloro-8-fluoro-4-piperazin-1-yl-quinazolin-7-yl]-1,3-benzothiazol-2-amine] | 437 nM
Nc1nc2c(-c3c(Cl)cc4c(N5CCNCC5)nc(N5CC6CNC(C6)C5)nc4c3F)cccc2s1 (stereo not drawn) [Example 114, 4-[6-chloro-8-fluoro-4-piperazin-1-yl-2-[3,6-diazabicyclo[3.2.1]octan-3-yl]quinazolin-7-yl]-1,3-benzothiazol-2-amine] | 2770 nM
Nc1nc2c(-c3c(Cl)cc4c(N5CCNCC5)nc(N5CC(N)C5)nc4c3F)cccc2s1 [Example 96, 4-[2-(3-aminoazetidin-1-yl)-6-chloro-8-fluoro-4-piperazin-1-yl-quinazolin-7-yl]-1,3-benzothiazol-2-amine] | 1251 nM
CC1(C)CN(C2CN(c3nc(N4CCNCC4)c4cc(Cl)c(-c5cccc6sc(N)nc56)c(F)c4n3)C2)CCO1 [Example 117, 4-[6-chloro-2-[3-(2,2-dimethylmorpholin-4-yl)azetidin-1-yl]-8-fluoro-4-piperazin-1-yl-quinazolin-7-yl]-1,3-benzothiazol-2-amine] | 3320 nM
CN1CCO[C@H]2CN(c3nc(N4CCNCC4)c4cc(Cl)c(-c5cccc6sc(N)nc56)c(F)c4n3)C[C@@H]21 (relative stereo) [Example 101, 4-(6-chloro-8-fluoro-2-(trans-4-methylhexahydropyrrolo[3,4-b][1,4]oxazin-6(2H)-yl)-4-(piperazin-1-yl)quinazolin-7-yl)benzo[d]thiazol-2-amine] | 1530 nM
CN1CCC[C@H]1COc1nc(N2C3CCC2C(=O)NC3)c2cc(Cl)c(-c3cccc4sc(N)nc34)c(F)c2n1 (stereo partly drawn) [Example 82, 8-(7-(2-aminobenzo[d]thiazol-4-yl)-6-chloro-8-fluoro-2-(((S)-1-methylpyrrolidin-2-yl)methoxy)quinazolin-4-yl)-3,8-diazabicyclo[3.2.1]octan-2-one] | 471 nM
Nc1nc2c(-c3c(Cl)cc4c(N5CCNCC5)nc(N5CC6(CCCN6)C5)nc4c3F)cccc2s1 [Example 84, 4-[6-chloro-2-(2,5-diazaspiro[3.4]octan-2-yl)-8-fluoro-4-piperazin-1-yl-quinazolin-7-yl]-1,3-benzothiazol-2-amine] | 567 nM
C[C@@H]1[C@@H](N)CN1c1nc(N2CCNCC2)c2cc(Cl)c(-c3cccc4sc(N)nc34)c(F)c2n1 [Example 80, 4-[2-[(2R,3S)-3-amino-2-methyl-azetidin-1-yl]-6-chloro-8-fluoro-4-piperazin-1-yl-quinazolin-7-yl]-1,3-benzothiazol-2-amine] | 377 nM
CC1(N)CN(c2nc(N3CCNCC3)c3cc(Cl)c(-c4cccc5sc(N)nc45)c(F)c3n2)C1 [Example 79, 4-[2-(3-amino-3-methyl-azetidin-1-yl)-6-chloro-8-fluoro-4-piperazin-1-yl-quinazolin-7-yl]-1,3-benzothiazol-2-amine] | 359 nM
COC1CCN(C2CN(c3nc(N4CCNCC4)c4cc(Cl)c(-c5cccc6sc(N)nc56)c(F)c4n3)C2)CC1 [Example 88, 4-[6-chloro-8-fluoro-2-[3-(4-methoxy-1-piperidyl)azetidin-1-yl]-4-piperazin-1-yl-quinazolin-7-yl]-1,3-benzothiazol-2-amine] | 706 nM
CN1CCO[C@@H]2CN(c3nc(N4CCNCC4)c4cc(Cl)c(-c5cccc6sc(N)nc56)c(F)c4n3)C[C@@H]21 (relative stereo) [Example 103, 4-(6-chloro-8-fluoro-2-(cis-4-methylhexahydropyrrolo[3,4-b][1,4]oxazin-6(2H)-yl)-4-(piperazin-1-yl)quinazolin-7-yl)benzo[d]thiazol-2-amine] | 1710 nM
Nc1nc2c(-c3c(Cl)cc4c(N5CCNCC5)nc(N5CC6(CCNC6)C5)nc4c3F)cccc2s1 [Example 120, 4-[6-chloro-2-(2,7-diazaspiro[3.4]octan-2-yl)-8-fluoro-4-piperazin-1-yl-quinazolin-7-yl]-1,3-benzothiazol-2-amine] | 3900 nM
Nc1nc2c(-c3c(Cl)cc4c(N5CCNCC5)nc(N5CC6(C5)NCC6(F)F)nc4c3F)cccc2s1 [Example 118, 4-[6-chloro-2-(3,3-difluoro-1,6-diazaspiro[3.3]heptan-6-yl)-8-fluoro-4-piperazin-1-yl-quinazolin-7-yl]-1,3-benzothiazol-2-amine] | 3370 nM
Nc1nc2c(-c3c(Cl)cc4c(N5CCNCC5)nc(N5C[C@@H]6NCC[C@@H]65)nc4c3F)cccc2s1 [Example 115, 4-[6-chloro-2-[(1S,5S)-2,6-diazabicyclo[3.2.0]heptan-6-yl]-8-fluoro-4-piperazin-1-yl-quinazolin-7-yl]-1,3-benzothiazol-2-amine] | 2860 nM
Nc1nc2c(-c3c(Cl)cc4c(N5CCNCC5)nc(NCC(O)c5cncs5)nc4c3F)cccc2s1 (stereo not drawn) [Example 106, 2-[[7-(2-amino-1,3-benzothiazol-4-yl)-6-chloro-8-fluoro-4-piperazin-1-yl-quinazolin-2-yl]amino]-1-thiazol-5-yl-ethanol] | 1900 nM
Nc1nc2c(-c3c(Cl)cc4c(N5CCNCC5)nc(N5C[C@@H]6NCC[C@H]65)nc4c3F)cccc2s1 [Example 93, 4-[6-chloro-2-[(1S,5R)-2,6-diazabicyclo[3.2.0]heptan-6-yl]-8-fluoro-4-piperazin-1-yl-quinazolin-7-yl]-1,3-benzothiazol-2-amine] | 1140 nM
CN(C)[C@@H]1CCN(c2nc(N3CCNCC3)c3cc(Cl)c(-c4cccc5sc(N)nc45)c(F)c3n2)C1 [Example 95, 4-[6-chloro-2-[(3R)-3-(dimethylamino)pyrrolidin-1-yl]-8-fluoro-4-piperazin-1-yl-quinazolin-7-yl]-1,3-benzothiazol-2-amine] | 1180 nM
CN(C1COC1)C1CN(c2nc(N3CCNCC3)c3cc(Cl)c(-c4cccc5sc(N)nc45)c(F)c3n2)C1 [Example 100, 4-[6-chloro-8-fluoro-2-[3-[methyl(oxetan-3-yl)amino]azetidin-1-yl]-4-piperazin-1-yl-quinazolin-7-yl]-1,3-benzothiazol-2-amine] | 1500 nM
CNC1CN(c2nc(N3CCNCC3)c3cc(Cl)c(-c4cccc5sc(N)nc45)c(F)c3n2)C1 [Example 91, 4-[6-chloro-8-fluoro-2-[3-(methylamino)azetidin-1-yl]-4-piperazin-1-yl-quinazolin-7-yl]-1,3-benzothiazol-2-amine] | 1013 nM
CCN1CCN(C2CN(c3nc(N4CCNCC4)c4cc(Cl)c(-c5cccc6sc(N)nc56)c(F)c4n3)C2)CC1 [Example 112, 4-[6-chloro-2-[3-(4-ethylpiperazin-1-yl)azetidin-1-yl]-8-fluoro-4-piperazin-1-yl-quinazolin-7-yl]-1,3-benzothiazol-2-amine] | 2460 nM
Nc1nc2c(-c3c(Cl)cc4c(N5CCNCC5)nc(N5CCCC(c6nccs6)C5)nc4c3F)cccc2s1 (stereo not drawn) [Example 121, 4-[6-chloro-8-fluoro-4-piperazin-1-yl-2-[3-thiazol-2-yl-1-piperidyl]quinazolin-7-yl]-1,3-benzothiazol-2-amine] | 3950 nM
